According to patent US20120052025A1 (Colgate-Palmolive Company, priority 2009, published 2012):
Converted amounts (≈) assume the structure as drawn.

How the values were obtained:
[1] = Stability of formulations with and without antioxidants; type: physicochemical
Description: The stability of three formulations of Compound 1 are compared, the formulations being identical except that one is without any antioxidants, one contains α-tocopherol, and the third contains sodium ascorbylphosphate.

S. oralis = assay: Minimum inhibitory concentration; type: cell-based; conditions: Streptococcus oralis, Gram Positive, ethanol vehicle
Description: (§1) The minimum inhibitory concentration for COMPOUND 1 against common oral bacteria is found to be as follows. Ethanol is used as vehicle.

S. sobrinus = assay: Minimum inhibitory concentration; type: cell-based; conditions: Streptococcus sobrinus, Gram Positive, ethanol vehicle
Description: as §1

L. casei = assay: Minimum inhibitory concentration; type: cell-based; conditions: Lacticaseibacillus casei, Gram Positive, ethanol vehicle
Description: as §1

P. gingivalis = assay: Minimum inhibitory concentration; type: cell-based; conditions: Porphyromonas gingivalis, Gram Negative, ethanol vehicle
Description: as §1

S. gordonii = assay: Minimum inhibitory concentration; type: cell-based; conditions: Streptococcus gordonii, Gram Positive, ethanol vehicle
Description: as §1

A. viscosus = assay: Minimum inhibitory concentration; type: cell-based; conditions: Actinomyces viscosus, Gram Positive, ethanol vehicle
Description: as §1

A. actinomycetemcomitans = assay: Minimum inhibitory concentration; type: cell-based; conditions: Aggregatibacter actinomycetemcomitans, Gram Negative, ethanol vehicle
Description: as §1

F. nucleatum = assay: Minimum inhibitory concentration; type: cell-based; conditions: Fusobacterium nucleatum, Gram Negative, ethanol vehicle
Description: as §1

P. intermedia = assay: Minimum inhibitory concentration; type: cell-based; conditions: Prevotella intermedia, Gram Negative, ethanol vehicle
Description: as §1

S. mutans = assay: Minimum inhibitory concentration; type: cell-based; conditions: Streptococcus mutans, Gram Positive, ethanol vehicle
Description: as §1

S. sanguinis = assay: Minimum inhibitory concentration; type: cell-based; conditions: Streptococcus sanguinis, Gram Positive, ethanol vehicle
Description: as §1

V. parvula = assay: Minimum inhibitory concentration; type: cell-based; conditions: Veillonella parvula, Gram Negative, ethanol vehicle
Description: as §1

A. naeslundii = assay: Minimum inhibitory concentration; type: cell-based; conditions: Actinomyces naeslundii, Gram Positive, ethanol vehicle
Description: as §1

biofilm = assay: Biofilm disruption assay; type: cell-based
Description: The solution of 0.5% AN0128.0.75% SLS. 50% Fluraflo L4370 in water is then tested in a biofilm disruption assay.
A solution of 2% Compound 1 in PEG 300 is diluted 1:1 with 2% SLS in water to produce a solution composed of 1% Compound 1, 1% SLS, 50% PEG 300 in water which is then tested in a biofilm disruption assay.
(§2) The properties of Compound 1 in conjunction with other excipients are further evaluated by diluting a solution of Compound 1 in PEG 300 into other solvents such as propylene glycol and glycerin at varying ratios. A solution containing 1% Compound 1 in 19% PEG 300 and 80% propylene glycol is clear. This solution is then diluted 1:1 with 1% SLS in water to produce a solution composed of 0.5% Compound 1, 0.5% SLS, 9.5% PEG 300 and 40% propylene glycol in water which is then tested in the biofilm disruption assay. The percent reduction achieved versus the negative control is 80%. […] Similar results are achieved with PEG and glycerin.

[2] = type: physicochemical
Description: Although some borinic esters are effective as antibacterial agents, incorporating borinic esters into oral care compositions presents difficulties, as borinic esters have proven to be unstable when added to aqueous compositions. For example, borinic esters may hydrolyze and decompose, e.g., in oral care compositions. Additionally, borinic esters may be insoluble in aqueous compositions. […] There remains a need to develop compositions and methods to incorporate borinic acid derivatives stably in oral care compositions.
The poor solubility of Compound A presents some formulation challenges. Its solubility in water is less than 100 ppm, and its solubility in flavor oils (often used to solubilize actives) is less than 0.5%. We have discovered that co-polymers of polyethylene glycol and polypropylene glycol are able to solubilize Compound 1. Fluraflo L4370 (BASF) is able to solubilize 1% Compound 1 (% w/w). It is necessary to stir the solution over low heat to fully solubilize the active. The resulting solution is cloudy, reflecting the nature of the Fluraflo L4370 itself. The solution of 1% Compound 1 in Fluraflo L4370 is diluted 1:1 with 1.5% SLS in water to produce a clear solution, composed of 0.5% AN0128, 0.75% SLS, 50% Fluraflo L4370 in water Similar results are achieved using Fluracare L1220.
We further discovered that low molecular weight polyethylene glycol 300 (PEG 300) (Dow Chemical Company) solubilizes 10% Compound 1 (% w/w). It is necessary to stir the solution over low heat to fully solubilize the active. The resulting solution is clear with a slight yellow tint due to the color of Compound 1. […] Therefore, we conclude that solvents containing oligomers and/or polymers of ethylene glycol are capable of solubilizing Compound 1 and are suitable for formulation.
as §2

[3] = Decomposition in buffered vs unbuffered pH 7.2 formulation; type: physicochemical; conditions: pH 7.2, phosphate buffer, 14 days
Description: Two pH 7.2 formulations of Compound 1 are prepared, one with phosphate buffer, one without, and the decomposition of Compound 1 is measured over 14 days. While measurable decomposition is seen in both formulations, the slope of the rate of decomposition Compound 1 in the buffered formulation is decreased by 3.3 fold compared to that of the unbuffered formulation.

## Cc1ccc([B-]2(c3ccc(C)c(Cl)c3)OC(=O)c3ncccc3[OH+]2)cc1Cl [Compound 1]
[1]; formulation containing sodium ascorbylphosphate vs without antioxidants
  decomposition in formulation: significantly reduced
[1]; formulation containing α-tocopherol vs without antioxidants
  decomposition in formulation: even less
S. oralis
  MIC: 0.12 to 0.25 µg/mL (≈ 0.3 to 0.625 µM)
S. sobrinus
  MIC: 0.12 to 0.5 µg/mL (≈ 0.3 to 1.25 µM)
L. casei
  MIC: 2 to 3.9 µg/mL (≈ 5 to 9.75 µM)
P. gingivalis
  MIC: ≤ 0.12 µg/mL
S. gordonii
  MIC: 0.12 to 0.25 µg/mL (≈ 0.3 to 0.625 µM)
A. viscosus
  MIC: 1 µg/mL (≈ 2.5 µM)
A. actinomycetemcomitans
  MIC: > 15.6 µg/mL
F. nucleatum
  MIC: 1 to 2 µg/mL (≈ 2.5 to 5 µM)
P. intermedia
  MIC: 3.9 to 7.8 µg/mL (≈ 9.75 to 19.5 µM)
S. mutans
  MIC: 0.25 to 0.5 µg/mL (≈ 0.625 to 1.25 µM)
S. sanguinis
  MIC: 0.25 to 0.5 µg/mL (≈ 0.625 to 1.25 µM)
V. parvula
  MIC: 7.8 µg/mL (≈ 19.5 µM)
A. naeslundii
  MIC: 1 to 2 µg/mL (≈ 2.5 to 5 µM)
biofilm; solution of 0.5% AN0128, 0.75% SLS, 50% Fluraflo L4370 in water
  percent reduction versus the negative control: 65%
biofilm; solution of 0.5% Compound 1, 0.5% SLS, 9.5% PEG 300 and 40% propylene glycol in water
  percent reduction versus the negative control: 80%
biofilm; solution of 1% Compound 1, 1% SLS, 50% PEG 300 in water
  percent reduction versus the negative control: 76%
[2]
  amount of Compound 1 solubilized by Fluraflo L4370: 1 % w/w
  amount of Compound 1 solubilized by PEG 300: 10 % w/w
  solubility in oils: less than 0.5%
  solubility in water: 100 ppm
  solubilization by PEG 600: can solubilize
[2]; 1% Compound 1 in 19% PEG 300 and 80% propylene glycol
  appearance of solution: clear
[3]
  decrease of the slope of the rate of decomposition, buffered vs unbuffered formulation: 3.3 fold
